Reference: ChEMBL document CHEMBL2177054, “Rational design of conformationally constrained cyclopentapeptide antagonists for C-x-C chemokine receptor 4 (CXCR4)” (J Med Chem, 2012)

Target: C-X-C chemokine receptor type 4 (Homo sapiens, UniProt P61073)
Assay: Antagonist activity against human CXCR4 expressed in COS7 cells assessed as inhibition of CXCL12-induced myo-[3H]inositol production by scintillation counting
Type: functional, cell-based, COS-7

Chain of C-X-C chemokine receptor type 4 (P61073 whole entry): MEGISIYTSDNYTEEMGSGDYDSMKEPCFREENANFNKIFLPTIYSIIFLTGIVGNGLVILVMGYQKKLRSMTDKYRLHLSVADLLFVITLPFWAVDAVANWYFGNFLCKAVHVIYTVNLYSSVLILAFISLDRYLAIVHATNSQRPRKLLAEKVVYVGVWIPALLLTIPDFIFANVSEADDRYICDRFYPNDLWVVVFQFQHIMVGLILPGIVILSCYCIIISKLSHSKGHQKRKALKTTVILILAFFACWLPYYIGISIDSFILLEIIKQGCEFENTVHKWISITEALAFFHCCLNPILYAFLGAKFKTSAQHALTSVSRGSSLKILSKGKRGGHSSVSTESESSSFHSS

SMILES	EC50
N=C(N)NCCC[C@@H]1NC(=O)C2(CCCCC2)NC(=O)[C@@H](Cc2ccc(O)cc2)NC(=O)CNC(=O)[C@H](Cc2ccc3ccccc3c2)NC1=O	5.4 µM
CC1(C)NC(=O)[C@@H](Cc2ccc(O)cc2)NC(=O)CNC(=O)[C@H](Cc2ccc3ccccc3c2)NC(=O)[C@H](CCCNC(=N)N)NC1=O	3.6 µM
N=C(N)NCCC[C@@H]1NC(=O)C2(CCN(C(=N)N)CC2)NC(=O)[C@@H](Cc2ccc(O)cc2)NC(=O)CNC(=O)[C@H](Cc2ccc3ccccc3c2)NC1=O	0.26 µM
N=C(N)NCCC[C@@H]1NC(=O)[C@@H](Cc2ccc(O)cc2)NC(=O)CNC(=O)[C@H](Cc2ccc3ccccc3c2)NC(=O)[C@H](CCCNC(N)=O)NC1=O	> 100 µM
N=C(N)NCCC[C@@H]1NC(=O)[C@H](CCCNC(N)=O)NC(=O)[C@@H](Cc2ccc(O)cc2)NC(=O)CNC(=O)[C@H](Cc2ccc3ccccc3c2)NC1=O	2.9 µM
N=C(N)NCCC[C@@H]1NC(=O)[C@H](Cc2ccc(N)cc2)NC(=O)[C@@H](Cc2ccc(O)cc2)NC(=O)CNC(=O)[C@H](Cc2ccc3ccccc3c2)NC1=O	15 µM
N=C(N)NCCC[C@@H]1NC(=O)[C@H](Cc2ccc(NC(=N)N)cc2)NC(=O)[C@@H](Cc2ccc(O)cc2)NC(=O)CNC(=O)[C@H](Cc2ccc3ccccc3c2)NC1=O	0.68 µM
N=C(N)NCCC[C@@H]1NC(=O)CNC(=O)[C@@H](Cc2ccc(O)cc2)NC(=O)CNC(=O)[C@H](Cc2ccc3ccccc3c2)NC1=O	36 µM
N=C(N)NCCC[C@@H]1NC(=O)C2(CCNCC2)NC(=O)[C@@H](Cc2ccc(O)cc2)NC(=O)CNC(=O)[C@H](Cc2ccc3ccccc3c2)NC1=O	0.56 µM
NC(=O)NCCC[C@@H]1NC(=O)[C@H](CCCNC(N)=O)NC(=O)[C@@H](Cc2ccc(O)cc2)NC(=O)CNC(=O)[C@H](Cc2ccc3ccccc3c2)NC1=O	> 100 µM
N=C(N)NCCC[C@@H]1NC(=O)[C@H](Cc2ccccc2)NC(=O)[C@@H](Cc2ccc(O)cc2)NC(=O)CNC(=O)[C@H](Cc2ccc3ccccc3c2)NC1=O	7.2 µM
